Results as given in PMC6407579, “New flavonoid – N,N-dibenzyl(N-methyl)amine hybrids: Multi-target-directed agents for Alzheimer´s disease endowed with neurogenic properties” (Journal of Enzyme Inhibition and Medicinal Chemistry, 2019).
Several values for one entry are separate records, joined by “and”; a condition that tells them apart may be missing. Equal entries are not always repeated. Where two headings read alike, the source gives them in different places.

What was measured:
[1] = molecular target: T1, human recombinant AChE (hAChE) (Homo sapiens, UniProt P22303); assay: biochemical
T1 construct: purchased Sigma Chemical Co
T1 sequence (P22303 32-614): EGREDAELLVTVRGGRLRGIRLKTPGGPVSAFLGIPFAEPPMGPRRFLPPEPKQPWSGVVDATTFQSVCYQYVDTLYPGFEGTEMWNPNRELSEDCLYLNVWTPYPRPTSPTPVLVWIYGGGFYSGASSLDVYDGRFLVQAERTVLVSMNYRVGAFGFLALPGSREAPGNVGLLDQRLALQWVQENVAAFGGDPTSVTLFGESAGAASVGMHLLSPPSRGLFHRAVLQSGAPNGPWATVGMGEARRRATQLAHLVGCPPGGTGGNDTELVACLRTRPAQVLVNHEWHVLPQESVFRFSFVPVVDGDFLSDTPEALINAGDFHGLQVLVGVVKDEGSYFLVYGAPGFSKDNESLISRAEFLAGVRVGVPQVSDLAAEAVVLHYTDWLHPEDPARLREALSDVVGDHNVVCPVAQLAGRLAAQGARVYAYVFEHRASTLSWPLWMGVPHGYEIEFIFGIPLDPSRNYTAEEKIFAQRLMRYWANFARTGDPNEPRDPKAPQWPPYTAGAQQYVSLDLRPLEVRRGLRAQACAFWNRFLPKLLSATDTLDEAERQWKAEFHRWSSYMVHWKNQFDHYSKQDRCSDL
Description: The Ellman method was followed, using human recombinant AChE and BuChE from human serum. The assay solution consisted of 0.1 M phosphate buffer pH 8.0, 400 μM 5,5´-dithiobis(2-nitrobenzoic acid) (DTNB, Ellman’s reagent), 0.05 U/mL hAChE (Sigma Chemical Co.) or 0.024 U/mL hBuChE (Sigma Chemical Co.), and 800 μM acetylthiocholine iodide, or 500 μM butyrylthiocholine as the substrate of the enzymatic reaction, respectively. The compounds tested were added to the assay solution and preincubated with the enzyme for 5 min at 30 °C. After that period, the substrate was added.

recombinant hMAO-A = molecular target: T2, recombinant hMAO-A (Homo sapiens, UniProt P21397); assay: biochemical; format: biochemical; conditions: for IC50: mean ± SEM (n = 3), 100 µM highest concentration tested
T2 sequence (P21397 1-527): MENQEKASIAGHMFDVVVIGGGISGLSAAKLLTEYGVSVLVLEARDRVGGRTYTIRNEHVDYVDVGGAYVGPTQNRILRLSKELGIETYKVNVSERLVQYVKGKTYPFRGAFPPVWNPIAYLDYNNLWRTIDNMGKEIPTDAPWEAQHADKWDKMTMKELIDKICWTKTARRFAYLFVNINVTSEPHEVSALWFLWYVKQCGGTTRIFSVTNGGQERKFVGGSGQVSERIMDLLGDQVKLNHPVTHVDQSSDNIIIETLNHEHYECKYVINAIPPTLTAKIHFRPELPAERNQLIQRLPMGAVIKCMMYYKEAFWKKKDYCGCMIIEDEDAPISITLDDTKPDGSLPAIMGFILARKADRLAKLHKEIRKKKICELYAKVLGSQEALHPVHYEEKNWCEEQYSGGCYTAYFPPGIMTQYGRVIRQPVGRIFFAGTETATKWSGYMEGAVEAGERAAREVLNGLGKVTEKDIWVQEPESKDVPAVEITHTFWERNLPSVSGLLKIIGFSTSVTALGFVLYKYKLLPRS

recombinant hMAO-B = molecular target: T3, recombinant hMAO-B (Homo sapiens, UniProt P27338); assay: biochemical; format: biochemical; conditions: mean ± SEM (n = 3); 100 µM highest concentration tested
T3 sequence (P27338 1-520): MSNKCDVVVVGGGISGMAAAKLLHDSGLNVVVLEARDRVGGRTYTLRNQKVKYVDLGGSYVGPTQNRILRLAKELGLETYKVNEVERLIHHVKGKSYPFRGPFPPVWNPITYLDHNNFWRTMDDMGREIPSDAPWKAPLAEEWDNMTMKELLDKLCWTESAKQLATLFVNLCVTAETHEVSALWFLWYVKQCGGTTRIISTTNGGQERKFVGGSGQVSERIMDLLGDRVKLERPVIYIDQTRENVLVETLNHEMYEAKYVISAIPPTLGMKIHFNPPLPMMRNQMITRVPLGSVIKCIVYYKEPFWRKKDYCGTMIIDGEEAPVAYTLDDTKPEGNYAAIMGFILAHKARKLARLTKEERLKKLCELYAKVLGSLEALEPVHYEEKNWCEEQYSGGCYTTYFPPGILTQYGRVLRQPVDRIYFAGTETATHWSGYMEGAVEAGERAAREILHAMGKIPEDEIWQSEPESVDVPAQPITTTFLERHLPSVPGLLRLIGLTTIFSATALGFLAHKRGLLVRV

[2] = In vitro blood-brain barrier permeation assay (PAMPA-BBB); format: in vitro ADME; conditions: pig, pH 7.4, porcine brain lipid, PBS:ethanol (70:30), 25 °C, read-out: PAMPA-BBB permeability in the CNS (Pe)
Description: Prediction of the brain penetration was evaluated using a parallel artificial membrane permeation assay (PAMPA-BBB), in a similar manner as previously described[36]^,[46]^,[51–53]. Pipetting was performed with a semi-automatic pipettor (CyBi®-SELMA) and UV reading with a microplate spectrophotometer (Multiskan Spectrum, Thermo Electron Co.). Commercial drugs, phosphate buffered saline solution at pH 7.4 (PBS), and dodecane were purchased from Sigma, Aldrich, Acros, and Fluka. Millex filter units (PVDF membrane, diameter 25 mm, pore size 0.45 μm) were acquired from Millipore. The porcine brain lipid (PBL) was obtained from Avanti Polar Lipids. The donor microplate was a 96-well filter plate (PVDF membrane, pore size 0.45 μm) and the acceptor microplate was an indented 96-well plate, both from Millipore. The acceptor 96-well microplate was filled with 200 μL of PBS: ethanol (70:30) and the filter surface of the donor microplate was impregnated with 5 μL of porcine brain lipid (PBL) in dodecane (20 mg mL^−1). Compounds were dissolved in PBS: ethanol (70:30) at 100 μg mL^−1, filtered through a Millex filter, and then added to the donor wells (200 μL). The donor filter plate was carefully put on the acceptor plate to form a sandwich, which was left undisturbed for 120 min at 25 °C. After incubation, the donor plate is carefully removed and the concentration of compounds in the acceptor wells was determined by UV-Vis spectroscopy. Every sample is analysed at five wavelengths, in four wells and at least in three independent runs, and the results are given as the mean ± standard deviation. In each experiment, 11 quality control standards of known BBB permeability were included to validate and normalise the analysis set.
To check if new compounds could be able to reach their CNS-targets, we used the in vitro parallel artificial membrane permeability assay for the blood-brain barrier (PAMPA-BBB) described by Di et al.[87], and partially modified by us for testing molecules with limited water-solubility[36]^,[46]^,[51–53]. The passive CNS-permeation of new compounds 1–13 through a lipid extract of porcine brain was measured at room temperature. In each experiment, 11 commercial drugs of known brain permeability were also tested and their permeability values normalised to the reported PAMPA-BBB data. […].

σ1R = molecular target: T4, σ1R (Cavia porcellus, UniProt Q60492); assay: Sigma-1 receptor binding, [3H]-(+)-pentazocine competition; design: species or system guinea pig
T4 construct: the thawed membrane preparation of guinea pig brain cortex; from tissue; host or cells: guinea pig brain cortex membranes
T4 sequence (Q60492 whole entry): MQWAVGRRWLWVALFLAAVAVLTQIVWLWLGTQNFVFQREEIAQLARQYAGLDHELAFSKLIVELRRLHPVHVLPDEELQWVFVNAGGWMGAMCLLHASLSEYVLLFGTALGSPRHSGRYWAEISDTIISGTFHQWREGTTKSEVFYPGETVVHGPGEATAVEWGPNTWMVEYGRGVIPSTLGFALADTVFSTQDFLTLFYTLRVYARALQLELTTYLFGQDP

σ2R = molecular target: T5, σ2R (Rattus norvegicus, UniProt Q5U3Y7); assay: Sigma-2 receptor binding, [3H]-DTG competition
T5 construct: 150 µg of rat liver homogenate were incubated; from tissue; host or cells: rat liver homogenate
T5 sequence (Q5U3Y7 1-176): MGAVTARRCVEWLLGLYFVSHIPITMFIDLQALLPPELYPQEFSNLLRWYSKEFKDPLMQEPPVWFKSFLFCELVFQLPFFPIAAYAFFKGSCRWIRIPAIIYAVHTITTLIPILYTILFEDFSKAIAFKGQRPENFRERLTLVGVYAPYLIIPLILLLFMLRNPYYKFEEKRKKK

[3] = mean ± SEM (n = 3), read-out: hAChE IC50

Row | Compound | IC50 [1, 3] | preference for hMAO-A compared to hMAO-B (recombinant hMAO-A) | IC50 (recombinant hMAO-A) | IC50 (recombinant hMAO-B) | Papp at 120 min, 100 μg mL^−1 [2] | Ki (σ1R) | Selectivity vs. σ1R (Kiσ2R/Kiσ1R) (σ1R) | Ki (σ2R) | IC50 ([1]; hAChE IC50, mean ± SEM (n = 3)) | IC50 (σ1R) | Ki (σ1R; guinea pig brain cortex membranes, [3H]-(+)-pentazocine, mean ± SEM, read-out: Ki σ1R) | Ki (σ2R; rat liver homogenate, [3H]-DTG, mean ± SEM, read-out: Ki σ2R)
1 | COc1ccc2oc(C(=O)Nc3ccc(CN(C)Cc4ccccc4)cc3)cc(=O)c2c1 [Compound 1, N-(4-((Benzyl(methyl)amino)methyl)phenyl)-6-methoxy-4-oxo-4H-chromene-2-carboxamide] | 1.5 ± 0.2 µM | at least 4.4 times | 1.6 ± 0.4 µM | 59.8 ± 3.7 µM | 171 ± 15 nm/s | 0.48 ± 0.05 µM | 3.7 | 1.78 ± 0.43 µM | – | – | – | –
2 | CN(Cc1ccccc1)Cc1ccc(NC(=O)c2cc(=O)c3cc(O)ccc3o2)cc1 [Compound 2, N-(4-((Benzyl(methyl)amino)methyl)phenyl)-6-hydroxy-4-oxo-4H-chromene-2-carboxamide] | 1.3 ± 0.3 µM | – | 7 ± 0.8 µM | 9.7 ± 1.6 µM | 68 ± 4 nm/s | 0.38 ± 0.05 µM | 4.2 | 1.6 ± 0.28 µM | – | – | – | –
3 | COc1cc2oc(C(=O)Nc3ccc(CN(C)Cc4ccccc4)cc3)cc(=O)c2cc1OC [Compound 5, N-(4-((Benzyl(methyl)amino)methyl)phenyl)-6,7-dimethoxy-4-oxo-4H-chromene-2-carboxamide] | – | – | 9 ± 0.1 µM | 8.1 ± 0.4 µM | 191 ± 15 nm/s | – | – | – | 0.99 µM and 1 µM | – | – | –
4 | COc1cc2oc(C(=O)Nc3cccc(CN(C)Cc4ccccc4)c3)cc(=O)c2cc1OC [Compound 6, N-(3-((Benzyl(methyl)amino)methyl)phenyl)-6,7-dimethoxy-4-oxo-4H-chromene-2-carboxamide] | – | – | > 100 µM | > 100 µM | 188 ± 13 nm/s | – | 2.5 | – | 4.5 ± 0.8 µM | 0.53 µM and 0.5 µM | 0.53 ± 0.07 µM | 1.3 ± 0.35 µM
